The target in experiment [1] is T1, hNET (Homo sapiens, UniProt P23975). The experiment in a line: fluorescence-based norepinephrine reuptake inhibition assay (Tsuruda et al. 2010; data indicated by an asterisk). The experiment is classed as cell-based. On the set-up: expressed in transfected cells; host or cells: HEK-293. To be noted: norepinephrine reuptake inhibition, fluorescence-based assay (values with asterisk); for IC50: read-out: NET pIC50 (converted).

Experiment [2] addresses T2, hSERT (Homo sapiens, UniProt P31645). The experiment in a line: fluorescence-based serotonin reuptake inhibition assay (Tsuruda et al. 2010; data indicated by an asterisk). The experiment is classed as cell-based. On the set-up: expressed in transfected cells; host or cells: HEK-293. The note with it: fluorescence-based assay (values with asterisk), read-out: SERT pIC50 (converted).

In experiment [3] the target is T2, hSERT. The experiment in a line: hSERT membrane radioligand binding assay (3H-citalopram), Assay 1. The note with it: SERT pKi, hSERT HEK-293 membranes, 1.0 nM 3H-citalopram; values given as lower bounds.
In experiment [4] the target is T1, hNET. In words: hNET membrane radioligand binding assay (3H-nisoxetine), Assay 1.
Protocol: Membrane radioligand binding assays were used to measure inhibition of labeled ligand (^3H-citalopram or ^3H-nisoxetine or ^3H-WIN35428) binding to membranes prepared from cells expressing the respective human recombinant transporter (hSERT or hNET or hDAT) in order to determine the pKi values of test compounds at the transporters.
Recombinant human embryonic kidney (HEK-293) derived cell lines stably transfected with hSERT or hNET, respectively, were grown in DMEM medium supplemented with 10% dialyzed FBS (for hSERT) or FBS (for hNET), 100 μg/mL penicillin, 100 μg/mL streptomycin, 2 mM L-glutamine and 250 μg/mL of the aminoglycoside antibiotic G418, in a 5% CO2 humidified incubator at 37° C. When cultures reached 80% confluence, the cells were washed thoroughly in PBS (without Ca^2+ and Mg^2+) and lifted with 5 mM EDTA in PBS. Cells were pelleted by centrifugation, resuspended in lysis buffer (10 mM Tris-HCl, pH7.5 containing 1 mM EDTA), homogenized, pelleted by centrifugation, then resuspended in 50 mM Tris-HCl, pH 7.5 and 10% sucrose at 4° C. Protein concentration of the membrane suspension was determined using a Bio-Rad Bradford Protein Assay kit. Membranes were snap frozen and stored at −80° C.
Binding assays were performed in a 96-well assay plate in a total volume of 200 μl assay buffer (50 mM Tris-HCl, 120 mM NaCl, 5 mM KCl, pH 7.4) with 0.5, 1, and 3 μg membrane protein, for SERT, NET and DAT, respectively.
Stock solutions (10 mM in DMSO) of test compound were prepared and serial dilutions made using Dilution Buffer (50 mM Tris-HCl, 120 mM NaCl, 5 mM KCl, pH 7.4, 0.1% BSA, 400 μM ascorbic acid).
Following a 60 minute incubation at 22° C. (or a period sufficient to reach equilibrium), the membranes were harvested by rapid filtration over a 96-well UniFilter GF/B plate, pretreated with 0.3% polyethyleneimine, and washed 6 times with 300 μl wash buffer (50 mM Tris-HCl, 0.9% NaCl, pH 7.5 at 4° C.). Plates were dried overnight at room temperature, approximately 45 μl of MicroScint™-20 (Perkin Elmer) added and bound radioactivity quantitated via liquid scintillation spectroscopy. Inhibition curves and saturation isotherms were analyzed using GraphPad Prism Software package (GraphPad Software, Inc., San Diego, Calif.). IC50 values were generated from concentration response curves using the Sigmoidal Dose Response (variable slope) algorithm in Prism GraphPad.
Experiment [5] concerns the target T2, hSERT. The experiment in a line: hSERT neurotransmitter uptake assay (3H-5-HT), Assay 2. The experiment is classed as cell-based. More on the design: expressed in transfected cells; host or cells: HEK-293. To be noted: serotonin reuptake inhibition, 3H-5-HT uptake, HEK-293 hSERT cells (values without asterisk); read-out: SERT pIC50 (converted).
Experiment [6] has as its target T1, hNET. In words: hNET neurotransmitter uptake assay (3H-NE), Assay 2. The class given is cell-based. More on the design: expressed in transfected cells; host or cells: HEK-293. To be noted: norepinephrine reuptake inhibition, 3H-NE uptake, HEK-293 hNET cells (values without asterisk); read-out: NET pIC50 (converted).

Marks after values point to notes of the source that are not given here.

T1 sequence (P23975 whole entry): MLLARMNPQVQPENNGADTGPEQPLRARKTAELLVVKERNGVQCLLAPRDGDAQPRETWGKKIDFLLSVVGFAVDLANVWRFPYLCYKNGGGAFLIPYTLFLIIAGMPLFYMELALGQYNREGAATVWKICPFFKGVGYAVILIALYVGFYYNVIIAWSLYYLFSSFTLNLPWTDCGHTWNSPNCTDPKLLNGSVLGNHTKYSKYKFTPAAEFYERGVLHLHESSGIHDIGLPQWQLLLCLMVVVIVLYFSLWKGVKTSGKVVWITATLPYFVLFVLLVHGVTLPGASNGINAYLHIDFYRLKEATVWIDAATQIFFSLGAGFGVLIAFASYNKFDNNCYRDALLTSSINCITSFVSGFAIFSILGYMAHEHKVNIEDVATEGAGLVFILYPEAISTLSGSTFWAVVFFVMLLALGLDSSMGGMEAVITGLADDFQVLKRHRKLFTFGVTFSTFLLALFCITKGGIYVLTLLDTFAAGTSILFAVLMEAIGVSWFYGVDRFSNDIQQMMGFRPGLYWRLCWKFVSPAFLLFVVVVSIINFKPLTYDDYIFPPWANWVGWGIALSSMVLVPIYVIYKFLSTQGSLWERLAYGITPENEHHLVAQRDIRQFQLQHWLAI
T2 sequence (P31645 whole entry): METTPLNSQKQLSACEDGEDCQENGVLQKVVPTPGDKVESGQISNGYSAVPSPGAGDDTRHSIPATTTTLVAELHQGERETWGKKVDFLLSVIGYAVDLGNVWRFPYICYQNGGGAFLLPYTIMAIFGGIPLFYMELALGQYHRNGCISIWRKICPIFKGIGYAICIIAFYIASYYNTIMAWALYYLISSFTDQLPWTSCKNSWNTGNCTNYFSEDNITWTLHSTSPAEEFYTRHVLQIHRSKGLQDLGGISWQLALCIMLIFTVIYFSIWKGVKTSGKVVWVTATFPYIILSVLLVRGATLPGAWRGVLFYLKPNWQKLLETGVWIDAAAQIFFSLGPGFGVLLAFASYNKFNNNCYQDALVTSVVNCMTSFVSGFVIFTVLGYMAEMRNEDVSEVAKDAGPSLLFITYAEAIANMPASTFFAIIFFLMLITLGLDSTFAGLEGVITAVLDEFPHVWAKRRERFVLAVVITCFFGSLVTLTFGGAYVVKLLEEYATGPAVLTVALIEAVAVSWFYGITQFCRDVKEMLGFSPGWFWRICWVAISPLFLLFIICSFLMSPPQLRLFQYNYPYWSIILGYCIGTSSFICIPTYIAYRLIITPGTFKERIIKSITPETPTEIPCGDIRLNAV

Consider `CC(C)[C@H](Oc1ccc(C(F)(F)F)cc1Cl)[C@H]1CCNC1` [Example 6-25, (S)-3-[(S)-1-(2-Chloro-4-trifluoromethylphenoxy)-2-methylpropyl]pyrrolidine], for which the values for the IC50 in experiment [1] and in experiment [2] were at most 100 nM and at most 10 nM, respectively.

Turning to `CC[C@@H](Oc1cccc(Cl)c1C)[C@H]1CCNC1` [Example 2-65, (S)-3-[(R)-1-(3-Chloro-2-methylphenoxy)propyl]pyrrolidine], the IC50 in experiment [1] and in experiment [2] was at most 10 nM in each case.

Regarding `CC(C)C[C@H](Oc1c(Cl)c(F)cc(F)c1Cl)[C@H]1CCNC1` [Example 10-85, (S)-3-[(S)-1-(2,6-Dichloro-3,5-difluorophenoxy)-3-methylbutyl]pyrrolidine], the IC50 in experiment [1] and in experiment [2] was at most 10 nM throughout.

On to `CCC[C@H](Oc1ccc(Cl)c(Cl)c1F)[C@H]1CCNC1` [Example 4-52, (S)-3-[(S)-1-(3,4-Dichloro-2-fluorophenoxy)butyl]pyrrolidine], for which the IC50 in experiment [1] and in experiment [2] was at most 10 nM each time.

Regarding `CC(C)[C@@H](Oc1cccc2ccccc12)[C@@H]1CCNC1` [Example 14-7, (R)-3-[(R)-2-Methyl-1-(naphthalen-1-yloxy)propyl]pyrrolidine], the IC50 in experiment [1] is at most 100 nM; in experiment [2], at most 10 nM.

As to `CC(C)[C@@H](Oc1ccc(Cl)c(Cl)c1)[C@@H]1CCNC1` [Example 6-64, (R)-3-[(R)-1-(3,4-Dichlorophenoxy)-2-methylpropyl]pyrrolidine], the IC50 in experiment [1] is at most 100 nM; in experiment [2] it was at most 10 nM.

On to `CCC(CC)[C@@H](Oc1cccc(Cl)c1Cl)[C@H]1CCNC1` [Example 11, (S)-3-[(R)-1-(2,3-Dichlorophenoxy)-2-ethylbutyl]pyrrolidine], for which the IC50 in experiment [1] and in experiment [2] was at most 10 nM each time.

As to `CCC[C@H](Oc1cc(F)cc(Cl)c1)[C@H]1CCNC1` [Example 4-11, (S)-3-[(S)-1-(3-Chloro-5-fluorophenoxy)butyl]pyrrolidine], the IC50 in experiment [1] is at most 10 nM; in experiment [2], at most 100 nM.

`Fc1c(Cl)ccc(O[C@H](C2CC2)[C@H]2CCNC2)c1F` [Example 16-49, (S)-3-[(R)-(4-Chloro-2,3-difluorophenoxy)cyclopropylmethyl]pyrrolidine]: the IC50 in experiment [1] and in experiment [2] was at most 10 nM each time.

`CCC[C@@H](Oc1ccc(Cl)c(F)c1)[C@H]1CCNC1` [Example 4-17, (S)-3-[(R)-1-(4-Chloro-3-fluorophenoxy)butyl]pyrrolidine]: the IC50 is at most 100 nM in experiment [1] and at most 10 nM in experiment [2].

On to `CC[C@H](Oc1cc(C)c(Cl)c(C)c1)[C@H]1CCNC1` [Example 2-15, (S)-3-[(S)-1-(4-Chloro-3,5-dimethylphenoxy)propyl]pyrrolidine], for which the IC50 in experiment [1] is at most 100 nM; in experiment [2], at most 10 nM.

With `CC(C)[C@@H](Oc1ccc(Cl)c(Cl)c1F)[C@@H]1CCNC1` [Example 6-9, (R)-3-[(R)-1-(3,4-Dichloro-2-fluorophenoxy)-2-methylpropyl]pyrrolidine], the IC50 is at most 100 nM in experiment [1] and at most 10 nM in experiment [2].

Consider `Clc1cc(Cl)cc(OC(C2CCCC2)C2CCNC2)c1` (stereo not shown) [Example 18-10, 3-[Cyclopentyl-(3,5-dichlorophenoxy)methyl]pyrrolidine], for which, in experiment [1], the “NET pIC50” value is on record as “≧8.0*”. Also, the IC50 in experiment [2] was at most 100 nM.

`CC(C)[C@H](Oc1cccc(Cl)c1F)[C@H]1CCNC1` [Example 6-3, (S)-3-[(S)-1-(3-Chloro-2-fluorophenoxy)-2-methylpropyl]pyrrolidine]: the IC50 was at most 10 nM in experiment [1] and at most 100 nM in experiment [2].

As for `Clc1cccc(OC(C2CCCC2)C2CCNC2)c1Cl` (stereo not shown) [Example 18-1, 3-[Cyclopentyl-(2,3-dichlorophenoxy)methyl]pyrrolidine], the IC50 in experiment [1] and in experiment [2] was at most 10 nM each time.

Turning to `CCC[C@H](Oc1c(C)cc(Cl)cc1Cl)[C@H]1CCNC1` [Example 4-41, (S)-3-[(S)-1-(2,4-Dichloro-6-methylphenoxy)butyl]pyrrolidine], the IC50 in experiment [1] and in experiment [2] was at most 10 nM each time.

As to `Cc1cc(O[C@H](C2CC2)[C@H]2CCNC2)c(Cl)cc1Cl` [Example 16-73, (S)-3-[(R)cyclopropyl-(2,4-dichloro-5-methylphenoxy)methyl]pyrrolidine], the Ki is at most 10 nM in experiment [3] and at most 3160 nM in experiment [4]. In addition, the IC50 in experiment [2] was at most 100 nM.

Turning to `CC(C)CC(Oc1cccc(C(F)(F)F)c1F)C1CCNC1` (stereo not shown) [Example 10-20, 3-[1-(2-Fluoro-3-trifluoromethylphenoxy)-3-methylbutyl]pyrrolidine], the inhibition constant Ki in experiment [3] and in experiment [4] was at most 10 nM each time. Also, the IC50 in experiment [5] and in experiment [6] was at most 100 nM each time.

In the case of `C#CC(Oc1c(Cl)ccc(Cl)c1Cl)[C@H]1CCNC1` (stereo partly drawn) [Example 26, (S)-3-[1(2,3,6-Trichlorophenoxy)prop-2-ynyl]pyrrolidine], the Ki in experiment [3] and in experiment [4] was at most 10 nM each time. The IC50 in experiment [5] was at most 100 nM; in experiment [6] it was at most 10 nM.

For `FC(F)(F)c1c(Cl)cccc1O[C@@H](C1CC1)[C@H]1CCNC1` [Example 16-16, (S)-3-[(S)-(3-Chloro-2-trifluoromethylphenoxy)cyclopropylmethyl]pyrrolidine], the inhibition constant Ki in experiment [3] and in experiment [4] was at most 10 nM each time. The IC50 in experiment [5] and in experiment [6] was at most 10 nM throughout.

In the case of `CC(C)C[C@@H](Oc1ccc(Cl)c(Cl)c1)[C@H]1CCNC1` [Example 10-73, (S)-3-[(R)-1-(3,4-Dichlorophenoxy)-3-methylbutyl]pyrrolidine], the Ki in experiment [3] and in experiment [4] was at most 10 nM throughout. Besides, the IC50 in experiment [5] and in experiment [6] was at most 10 nM in each case.

On to `COc1ccc(F)cc1O[C@@H](CC(C)C)[C@H]1CCNC1` [Example 10-50, (S)-3-[(S)-1-(5-Fluoro-2-methoxyphenoxy)-3-methylbutyl]pyrrolidine], for which the Ki in experiment [3] and in experiment [4] was at most 10 nM throughout. Moreover, the IC50 in experiment [5] was at most 100 nM; in experiment [6], at most 10 nM.

Turning to `CCC[C@@H](Oc1ccc(Cl)c(Cl)c1)[C@H]1CCNC1` [Example 4-13, (S)-3-[(R)-1-(3,4-Dichlorophenoxy)butyl]pyrrolidine], the Ki in experiment [3] and in experiment [4] was at most 10 nM each time. The IC50 in experiment [5] and in experiment [6] was at most 10 nM in each case.

In the case of `COc1c(O[C@@H](C2CC2)[C@H]2CCNC2)ccc(Cl)c1Cl` [Example 16-55, (S)-3-[(S)cyclopropyl-(3,4-dichloro-2-methoxyphenoxy)methyl]pyrrolidine], the Ki in experiment [3] and in experiment [4] was at most 10 nM each time. Moreover, the IC50 in experiment [5] and in experiment [6] was at most 10 nM throughout.

Regarding `CC(C)C[C@H](Oc1ccc(Cl)cc1Cl)[C@H]1CCNC1` [Example 10-42, (S)-3-[(S)-1-(2,4-Dichlorophenoxy)-3-methylbutyl]pyrrolidine], the Ki in experiment [3] and in experiment [4] was at most 10 nM each time. Moreover, the IC50 in experiment [5] and in experiment [6] was at most 10 nM in each case.

As to `Cc1ccc(O[C@@H](C(C)C)[C@H]2CCNC2)c(Cl)c1` [Example 6-24, (S)-3-[(S)-1-(2-Chloro-4-methylphenoxy)-2-methylpropyl]pyrrolidine], the Ki in experiment [3] and in experiment [4] was at most 10 nM throughout. For the same compound, the IC50 in experiment [5] and in experiment [6] was at most 10 nM each time.

Consider `CC(C)CC(Oc1ccccc1Cl)C1CCNC1` (stereo not shown) [Example 10-3, 3-[1-(2-Chlorophenoxy)-3-methylbutyl]pyrrolidine], for which the inhibitory constant (Ki) in experiment [3] and in experiment [4] was at most 10 nM each time. The figures for the IC50 in experiment [5] and in experiment [6] were at most 100 nM and at most 10 nM, respectively.

On to `Fc1cc(O[C@H](C2CC2)[C@H]2CCNC2)ccc1Cl` [Example 16-91, (S)-3-[(R)-(4-Chloro-3-fluorophenoxy)cyclopropylmethyl]pyrrolidine], for which the inhibition constant (Ki) in experiment [3] and in experiment [4] was at most 10 nM throughout. The IC50 in experiment [5] and in experiment [6] was at most 10 nM in each case.

In the case of `CC(C)CC(Oc1c(F)ccc(F)c1Cl)C1CCNC1` (stereo not shown) [Example 10-62, 3-[1-(2-Chloro-3,6-difluorophenoxy)-3-methylbutyl]pyrrolidine], the inhibition constant (Ki) in experiment [3] and in experiment [4] was at most 10 nM in each case. In addition, the IC50 in experiment [5] and in experiment [6] was at most 10 nM throughout.

Turning to `CCC[C@H](Oc1ccc(Cl)cc1Cl)[C@H]1CCNC1` [Example 4-28, (S)-3-[(S)-1-(2,4-Dichlorophenoxy)butyl]pyrrolidine], the Ki in experiment [3] and in experiment [4] was at most 10 nM each time. Also, the IC50 in experiment [5] and in experiment [6] was at most 10 nM each time.

Consider `CC(C)[C@H](Oc1ccc(Cl)cc1Cl)[C@H]1CCNC1` [Example 6-21, (S)-3-[(S)-1-(2,4-Dichlorophenoxy)-2-methylpropyl]pyrrolidine], for which the inhibition constant (Ki) in experiment [3] and in experiment [4] was at most 10 nM each time. The IC50 in experiment [5] and in experiment [6] was at most 10 nM each time.

For the origin of these results see US7994209B2, “3-phenoxymethylpyrrolidine compounds” (Theravance, Inc., priority 2009, dated 2011).
